Measurements reported in patent publication US9636339B2, “Phenyl-dihydropyridine derivatives as aldosterone synthase inhibitors” (Hoffmann-La Roche Inc., priority 2013, dated 2017).

What was measured:
human CYP11B1 = human CYP11B1 (Homo sapiens (Human), UniProt P15538); assay: G-402 cellular enzyme assay, human CYP11B1 (cortisol release); type: cell-based; conditions: G-402 cells, 1 μM Deoxycortisol
From the text: (§1) Herein we identified the use of the G-402 cell line as a host cell to ectopically express (transiently or stably) enzymes of the CYP11 family. Specifically we developed stable G-402 cells expressing ectopically human CYP11B1, human CYP11B2, human CYP11A1, cynmolgus CYP11B1 or cynomolgus CYP11B2 enzyme activity. Importantly the identified cell line G-402 expresses co-factors (adrenodoxin and adrenodoxin reductase) important for the activity of the CYP11 family and no relevant enzyme activity of the CYP11 family (in comparison to H295R cells) was detected in these cells. Therefore the G-402 cell line is uniquely suited as a host cell for the ectopic expression of enzymes from the CYP11 family. G-402 cells can be obtained from ATCC (CRL-1440) and were originally derived from a renal leiomyoblastoma.
(§2) The expression plasmids contains the ORF for either human/cyno CYP11B1 or CYP11B2 under the control of a suitable promoter (CMV-promoter) and a suitable resistance marker (neomycin). Using standard techniques the expression plasmid is transfected into G-402 cells and these cells are then selected for expressing the given resistance markers. Individual cell-clones are then selected and assessed for displaying the desired enzymatic activity using 11-Deoxycorticosterone (Cyp11B2) or 11-Deoxycortisol (Cyp11B1) as a substrate.
(§3) G-402 cells expressing CYP11 constructs were established as described above and maintained in McCoy's 5a Medium Modified, ATCC Catalog No. 30-2007 containing 10% FCS and 400 μg/ml G418 (Geneticin) at 37° C. under an atmosphere of 5% CO2/95% air. Cellular enzyme assays were performed in DMEM/F12 medium containing 2.5% charcoal treated FCS and appropriate concentration of substrate (0.3-10 uM 11-Deoxycorticosterone, 11-Deoxycortisol or Corticosterone). For assaying enzymatic activity, cells were plated onto 96 well plates and incubated for 16 h. An aliquot of the supernatant is then transferred and analyzed for the concentration of the expected product (Aldosterone for CYP11B2; Cortisol for CYP11B1). The concentrations of these steroids can be determined using HTRF assays from CisBio analyzing either Aldosterone or Cortisol.
(§4) Inhibition of the release of produced steroids can be used as a measure of the respective enzyme inhibition by test compounds added during the cellular enzyme assay. The dose dependent inhibition of enzymatic activity by a compound is calculated by means of plotting added inhibitor concentrations (x-axes) vs. measured steroid/product level (y-axes). The inhibition is then calculated by fitting the following 4-parameter sigmoidal function (Morgan-Mercer-Flodin (MMF) model) to the raw data points using the least squares method:
(§5) [formula] wherein, A is the maximum y value, B is the EC50 factor determined using XLFit, C is the minimum y value and D is the slope value.
(§6) EC50 values for compounds claimed herein were tested with the G402-based assay system described. Cyp11B2 enzyme activity was tested in presence of 1 μM Deoxycorticosterone and variable amounts of inhibitors; Cyp11B1 enzyme activity was tested in presence of 1 μM Deoxycortisol and variable amounts of inhibitors.

human CYP11B2 = human CYP11B2 (Homo sapiens (Human), UniProt P19099); assay: G-402 cellular enzyme assay, human CYP11B2 (aldosterone release); type: cell-based; conditions: G-402 cells, 1 μM Deoxycorticosterone
Chain of human CYP11B2 (P19099 25-503): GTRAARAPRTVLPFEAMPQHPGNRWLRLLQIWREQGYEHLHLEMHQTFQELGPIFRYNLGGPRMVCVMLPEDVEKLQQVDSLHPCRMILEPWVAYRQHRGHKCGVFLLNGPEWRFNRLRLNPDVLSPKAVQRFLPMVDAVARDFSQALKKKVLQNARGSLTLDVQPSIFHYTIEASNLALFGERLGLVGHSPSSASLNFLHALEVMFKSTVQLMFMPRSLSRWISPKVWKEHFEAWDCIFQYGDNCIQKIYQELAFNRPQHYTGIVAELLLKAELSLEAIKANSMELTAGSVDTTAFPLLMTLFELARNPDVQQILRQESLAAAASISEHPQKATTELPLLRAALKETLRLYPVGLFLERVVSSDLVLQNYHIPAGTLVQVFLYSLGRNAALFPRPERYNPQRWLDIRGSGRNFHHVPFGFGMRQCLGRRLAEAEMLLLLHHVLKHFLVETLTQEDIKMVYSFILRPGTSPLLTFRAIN
From the text: as §1, §2, §3, §4, §5, §6

Chain of human CYP11B1 (P15538 25-503): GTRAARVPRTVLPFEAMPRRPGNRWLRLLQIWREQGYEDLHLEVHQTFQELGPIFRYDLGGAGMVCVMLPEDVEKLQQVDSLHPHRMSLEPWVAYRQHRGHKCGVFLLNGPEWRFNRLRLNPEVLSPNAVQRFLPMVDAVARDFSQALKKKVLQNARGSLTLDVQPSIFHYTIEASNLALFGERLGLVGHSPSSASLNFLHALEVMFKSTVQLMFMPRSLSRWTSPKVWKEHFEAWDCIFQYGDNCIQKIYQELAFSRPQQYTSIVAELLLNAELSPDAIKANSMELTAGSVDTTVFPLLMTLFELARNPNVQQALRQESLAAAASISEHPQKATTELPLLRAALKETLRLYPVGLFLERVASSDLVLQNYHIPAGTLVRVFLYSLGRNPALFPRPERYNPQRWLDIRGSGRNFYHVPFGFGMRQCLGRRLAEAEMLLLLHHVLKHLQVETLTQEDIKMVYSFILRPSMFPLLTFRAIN

Row | EC50 (human CYP11B1) [nM] | EC50 (human CYP11B2) [nM] | SMILES
1 | 9110 | 133 | CN(C)C(=O)CC1CCCc2c(-c3ccc(C(F)(F)F)cc3F)cncc21 (single isomer, unassigned; (-)) [Example 28, (−)-(R or S)-2-[4-[2-fluoro-4-(trifluoromethyl)phenyl]-5,6,7,8-tetrahydroisoquinolin-8-yl]-N,N-dimethyl-acetamide]
2 | 1160 | 45 | O=C(CC1CCc2c(-c3ccc(C(F)(F)F)cc3F)cncc21)N1CC(CO)C1 (racemic) [Example 19, (rac)-2-[4-[2-Fluoro-4-(trifluoromethyl)phenyl]-6,7-dihydro-5H-cyclopenta[c]pyridin-7-yl]-1-[3-(hydroxymethyl)azetidin-1-yl]ethanone]
3 | 112 | 21 | CCCNC(=O)CC1CCc2c(-c3ccc(C(F)(F)F)c(F)c3)cncc21 (racemic) [Example 4, (rac)-2-[4-[3-Fluoro-4-(trifluoromethyl)phenyl]-6,7-dihydro-5H-cyclopenta[c]pyridin-7-yl]-N-propyl-acetamide]
4 | 1780 | 71 | O=C(CC1CCCc2c(-c3ccc(C(F)(F)F)cc3F)cncc21)NCC1CC1 (racemic) [Example 31, (rac)-N-(Cyclopropylmethyl)-2-[4-[2-fluoro-4-(trifluoromethyl)phenyl]-5,6,7,8-tetrahydroisoquinolin-8-yl]acetamide]
5 | 507 | 12 | O=C(CC1CCc2c(-c3ccc(C(F)(F)F)cc3F)cncc21)N1CCCC1 (racemic) [Example 21, (rac)-2-[4-[2-Fluoro-4-(trifluoromethyl)phenyl]-6,7-dihydro-5H-cyclopenta[c]pyridin-7-yl]-1-pyrrolidin-1-yl-ethanone]
6 | 3080 | 32 | CN(C)C(=O)CC1CCCc2c(-c3ccc(C(F)(F)F)cc3F)cncc21 (racemic) [Example 26, (rac)-2-[4-[2-Fluoro-4-(trifluoromethyl)phenyl]-5,6,7,8-tetrahydroisoquinolin-8-yl]-N,N-dimethyl-acetamide]
7 | 85 | 5 | OCCC1CCCc2c(-c3ccc(C(F)(F)F)cc3F)cncc21 (racemic) [Example 24, (rac)-2-[4-[2-Fluoro-4-(trifluoromethyl)phenyl]-5,6,7,8-tetrahydroisoquinolin-8-yl]ethanol]
8 | 4080 | 212 | CCNC(=O)CC1CCCc2c(-c3ccc(C(F)(F)F)cc3F)cncc21 (racemic) [Example 29, (rac)-N-Ethyl-2-[4-[2-fluoro-4-(trifluoromethyl)phenyl]-5,6,7,8-tetrahydroisoquinolin-8-yl]acetamide]
9 | 84 | 9 | CCOC(=O)CC1CCc2c(-c3ccc(C(F)(F)F)c(F)c3)cncc21 (racemic) [Example 1, (rac)-Ethyl 2-[4-[3-fluoro-4-(trifluoromethyl)phenyl]-6,7-dihydro-5H-cyclopenta[c]pyridin-7-yl]acetate]
10 | 9370 | 67 | CN(C)C(=O)CC1CCc2c(-c3ccc(C(F)(F)F)cc3F)cncc21 (racemic) [Example 13, (rac)-2-[4-[2-Fluoro-4-(trifluoromethyl)phenyl]-6,7-dihydro-5H-cyclopenta[c]pyridin-7-yl]-N,N-dimethyl-acetamide]
11 | 278 | 6 | C[C@H]1CCCN1C(=O)CC1CCc2c(-c3ccc(C(F)(F)F)cc3F)cncc21 (mixture of isomers) [Example 22, (rac)-2-[4-[2-Fluoro-4-(trifluoromethyl)phenyl]-6,7-dihydro-5H-cyclopenta[c]pyridin-7-yl]-1-[(2S)-2-methylpyrrolidin-1-yl]ethanone]
12 | 5060 | 222 | COCCNC(=O)CC1CCCc2c(-c3ccc(C(F)(F)F)cc3F)cncc21 (racemic) [Example 32, (rac)-2-[4-[2-Fluoro-4-(trifluoromethyl)phenyl]-5,6,7,8-tetrahydroisoquinolin-8-yl]-N-(2-methoxyethyl)acetamide]
13 | 217 | 13 | O=C(CC1CCc2c(-c3ccc(C(F)(F)F)c(F)c3)cncc21)NC1CC1 (racemic) [Example 5, (rac)-N-Cyclopropyl-2-[4-[3-fluoro-4-(trifluoromethyl)phenyl]-6,7-dihydro-5H-cyclopenta[c]pyridin-7-yl]acetamide]
14 | 1040 | 11 | CNC(=O)CC1CCCc2c(-c3ccc(C(F)(F)F)cc3F)cncc21 (racemic) [Example 25, (rac)-2-[4-[2-Fluoro-4-(trifluoromethyl)phenyl]-5,6,7,8-tetrahydroisoquinolin-8-yl]-N-methyl-acetamide]
15 | 2120 | 44 | CCN(C)C(=O)CC1CCc2c(-c3ccc(C(F)(F)F)cc3F)cncc21 (racemic) [Example 14, (rac)-N-Ethyl-2-[4-[2-fluoro-4-(trifluoromethyl)phenyl]-6,7-dihydro-5H-cyclopenta[c]pyridin-7-yl]-N-methyl-acetamide]
16 | 1890 | 27 | CCOC(=O)CC1CCCc2c(-c3ccc(C(F)(F)F)cc3F)cncc21 (racemic) [Example 23, (rac)-Ethyl 2-[4-[2-fluoro-4-(trifluoromethyl)phenyl]-5,6,7,8-tetrahydroisoquinolin-8-yl]acetate]
17 | 30 | 8 | O=C(CC1CCc2c(-c3ccc(C(F)(F)F)c(F)c3)cncc21)Nc1cc[nH]n1 (racemic) [Example 11, (rac)-2-[4-[3-Fluoro-4-(trifluoromethyl)phenyl]-6,7-dihydro-5H-cyclopenta[c]pyridin-7-yl]-N-(1H-pyrazol-3-yl)acetamide]
18 | 211 | 6 | CN(C(=O)CC1CCc2c(-c3ccc(C(F)(F)F)cc3F)cncc21)C1CC1 (racemic) [Example 16, (rac)-N-Cyclopropyl-2-[4-[2-fluoro-4-(trifluoromethyl)phenyl]-6,7-dihydro-5H-cyclopenta[c]pyridin-7-yl]-N-methyl-acetamide]
19 | 1490 | 53 | COC1CN(C(=O)CC2CCc3c(-c4ccc(C(F)(F)F)cc4F)cncc32)C1 (racemic) [Example 20, (rac)-2-[4-[2-Fluoro-4-(trifluoromethyl)phenyl]-6,7-dihydro-5H-cyclopenta[c]pyridin-7-yl]-1-(3-methoxyazetidin-1-yl)ethanone]
20 | 331 | 24 | O=C(CC1CCc2c(-c3ccc(C(F)(F)F)c(F)c3)cncc21)NCC1CC1 (racemic) [Example 6, (rac)-N-(Cyclopropylmethyl)-2-[4-[3-fluoro-4-(trifluoromethyl)phenyl]-6,7-dihydro-5H-cyclopenta[c]pyridin-7-yl]acetamide]
21 | 1490 | 36 | CN(C)C(=O)CC1CCCc2c(-c3ccc(C(F)(F)F)cc3F)cncc21 (single isomer, unassigned; (+)) [Example 27, (+)-(R or S)-2-[4-[2-fluoro-4-(trifluoromethyl)phenyl]-5,6,7,8-tetrahydroisoquinolin-8-yl]-N,N-dimethyl-acetamide]
22 | 69 | 13 | CCNC(=O)CC1CCc2c(-c3ccc(C(F)(F)F)c(F)c3)cncc21 (racemic) [Example 3, (rac)-2-[4-[3-Fluoro-4-(trifluoromethyl)phenyl]-6,7-dihydro-5H-cyclopenta[c]pyridin-7-yl]-N-ethyl-acetamide]
23 | 2680 | 48 | O=C(CC1CCc2c(-c3ccc(C(F)(F)F)cc3F)cncc21)N1CCC1 (racemic) [Example 18, (rac)-1-(Azetidin-1-yl)-2-[4-[2-fluoro-4-(trifluoromethyl)phenyl]-6,7-dihydro-5H-cyclopenta[c]pyridin-7-yl]ethanone]
24 | 180 | 17 | O=C(CC1CCc2c(-c3ccc(C(F)(F)F)c(F)c3)cncc21)Nc1ccon1 (racemic) [Example 10, (rac)-2-[4-[3-Fluoro-4-(trifluoromethyl)phenyl]-6,7-dihydro-5H-cyclopenta[c]pyridin-7-yl]-N-isoxazol-3-yl-acetamide]
